Experiments:
[1] = system: Echinochloa oryzoides (Ard.) Fritsch.; assay: Preemergence weed control under flooded paddy conditions, ECHORC (Watergrass (Calif.)); assay type: in vivo; settings: preemergence weeds, flooded paddy, herbicidal effect rating 0-9, three to four weeks after treatment
Cyperus iria [2] = assay: Preemergence weed control under flooded paddy conditions, CYPIR (Rice Flatsedge); assay type: in vivo; settings: preemergence weeds, flooded paddy, herbicidal effect rating 0-9, three to four weeks after treatment
[3] = system: Cyperus serotinus, Rottb.; assay: Preemergence weed control under flooded paddy conditions, CYPSE (Flatsedge); assay type: in vivo; settings: preemergence weeds, herbicidal effect rating 0-9, three to four weeks after treatment
[4] = system: Monochoria vaginalis, Presl.; assay: Preemergence weed control under flooded paddy conditions, MOOVA (Monochoria); assay type: in vivo; settings: preemergence weeds, flooded paddy, herbicidal effect rating 0-9, three to four weeks after treatment
Sagittaria pygmaea, L. [5] = assay: Preemergence weed control under flooded paddy conditions, SAGPY (Arrowhead (Pygmaea)); assay type: in vivo; settings: preemergence weeds, flooded paddy, herbicidal effect rating 0-9, three to four weeks after treatment
[6] = system: Echinochloa oryzoides (Ard.) Fritsch.; assay: Postemergence weed control under flooded paddy conditions, ECHORC (Watergrass (Calif.)); assay type: in vivo; settings: rated three to four weeks after treatment
Cyperus iria [7] = assay: Postemergence weed control under flooded paddy conditions, CYPIR (Rice Flatsedge); assay type: in vivo; settings: rated three to four weeks after treatment
[8] = system: Cyperus serotinus, Rottb.; assay: Postemergence weed control under flooded paddy conditions, CYPSE (Flatsedge); assay type: in vivo; settings: rated three to four weeks after treatment
[9] = system: Monochoria vaginalis, Presl.; assay: Postemergence weed control under flooded paddy conditions, MOOVA (Monochoria); assay type: in vivo; settings: rated three to four weeks after treatment
Sagittaria pygmaea, L. [10] = assay: Postemergence weed control under flooded paddy conditions, SAGPY (Arrowhead (Pygmaea)); assay type: in vivo; settings: rated three to four weeks after treatment
[11] = system: Oryza sativa, (L.) Tebonnet; assay: Rice tolerance to post-transplant applications under flooded paddy conditions (Example 187), ORYSAT (Rice, Tebonnet); settings: herbicidal effect rating 0-9, three to four weeks after treatment
[12] = system: Oryza sativa, (L.) Tebonnet; assay: Rice tolerance to post-transplant applications under flooded paddy conditions (Example 188), ORYSAT (Rice, Tebonnet); settings: rated three to four weeks after treatment

Cn1c(C(F)(F)F)cc(=O)n(-c2ccc3snc(C(=O)C(C)(C)C)c3c2)c1=O [Example 432, 2,4(1H,3H)-Pyrimidinedione, 1-methyl-3-(3-pivaloyl-1,2-benzisothiazol-5-yl)-6-(trifluoromethyl)-]
ECHORC ([1]; 0.0320 kg/ha): 9.0 | ECHORC ([1]; 0.0620 kg/ha): 9.0 | ECHORC ([1]; 0.1250 kg/ha): 9.0 | ECHORC ([1]; 0.2500 kg/ha): 9.0 | CYPIR (Cyperus iria [2]; 0.0320 kg/ha): 8.0 | CYPIR (Cyperus iria [2]; 0.0620 kg/ha): 9.0 | CYPIR (Cyperus iria [2]; 0.1250 kg/ha): 9.0 | CYPIR (Cyperus iria [2]; 0.2500 kg/ha): 9.0 | CYPSE ([3]; 0.0320 kg/ha): 0.0 | CYPSE ([3]; 0.0620 kg/ha): 3.5 | CYPSE ([3]; 0.1250 kg/ha): 6.5 | CYPSE ([3]; 0.2500 kg/ha): 9.0 | MOOVA ([4]; 0.0320 kg/ha): 9.0 | MOOVA ([4]; 0.0620 kg/ha): 9.0 | MOOVA ([4]; 0.1250 kg/ha): 9.0 | MOOVA ([4]; 0.2500 kg/ha): 9.0 | SAGPY (Sagittaria pygmaea, L. [5]; 0.0320 kg/ha): 0.0 | SAGPY (Sagittaria pygmaea, L. [5]; 0.0620 kg/ha): 3.5 | SAGPY (Sagittaria pygmaea, L. [5]; 0.1250 kg/ha): 7.5 | SAGPY (Sagittaria pygmaea, L. [5]; 0.2500 kg/ha): 8.5 | herbicidal effect rating, ECHORC ([6]; Rate 0.0320 kg/ha): 9.0 | herbicidal effect rating, ECHORC ([6]; Rate 0.0620 kg/ha): 9.0 | herbicidal effect rating, ECHORC ([6]; Rate 0.1250 kg/ha): 9.0 | herbicidal effect rating, ECHORC ([6]; Rate 0.2500 kg/ha): 9.0 | herbicidal effect rating, CYPIR (Cyperus iria [7]; Rate 0.0320 kg/ha): 8.0 | herbicidal effect rating, CYPIR (Cyperus iria [7]; Rate 0.0620 kg/ha): 8.0 | herbicidal effect rating, CYPIR (Cyperus iria [7]; Rate 0.1250 kg/ha): 9.0 | herbicidal effect rating, CYPIR (Cyperus iria [7]; Rate 0.2500 kg/ha): 9.0 | herbicidal effect rating, CYPSE ([8]; Rate 0.0320 kg/ha): 0.0 | herbicidal effect rating, CYPSE ([8]; Rate 0.0620 kg/ha): 4.0 | herbicidal effect rating, CYPSE ([8]; Rate 0.1250 kg/ha): 7.0 | herbicidal effect rating, CYPSE ([8]; Rate 0.2500 kg/ha): 9.0 | herbicidal effect rating, MOOVA ([9]; Rate 0.0320 kg/ha): 9.0 | herbicidal effect rating, MOOVA ([9]; Rate 0.0620 kg/ha): 9.0 | herbicidal effect rating, MOOVA ([9]; Rate 0.1250 kg/ha): 9.0 | herbicidal effect rating, MOOVA ([9]; Rate 0.2500 kg/ha): 9.0 | herbicidal effect rating, SAGPY (Sagittaria pygmaea, L. [10]; Rate 0.0320 kg/ha): 0.0 | herbicidal effect rating, SAGPY (Sagittaria pygmaea, L. [10]; Rate 0.0620 kg/ha): 0.0 | herbicidal effect rating, SAGPY (Sagittaria pygmaea, L. [10]; Rate 0.1250 kg/ha): 2.0 | herbicidal effect rating, SAGPY (Sagittaria pygmaea, L. [10]; Rate 0.2500 kg/ha): 4.0 | ORYSAT ([11]; 0.0320 kg/ha): 6.0 | ORYSAT ([11]; 0.0620 kg/ha): 6.0 | ORYSAT ([11]; 0.1250 kg/ha): 6.5 | ORYSAT ([11]; 0.2500 kg/ha): 7.5 | herbicidal effect rating, ORYSAT (rice tolerance) ([12]; Rate 0.0320 kg/ha): 4.0 | herbicidal effect rating, ORYSAT (rice tolerance) ([12]; Rate 0.0620 kg/ha): 4.0 | herbicidal effect rating, ORYSAT (rice tolerance) ([12]; Rate 0.1250 kg/ha): 7.0 | herbicidal effect rating, ORYSAT (rice tolerance) ([12]; Rate 0.2500 kg/ha): 7.0
